Experimental data as given in US11040981B2, “Pyrrolotriazine compounds and methods of inhibiting TAM kinases” (Syros Pharmaceuticals, Inc., priority 2017, dated 2021).
pIC50: −log10 of the molar value.

Assays:
MERTK = target: T1, MERTK (Homo sapiens, UniProt Q12866); test: TR-FRET kinase activity assay, MERTK; format: biochemical; conditions: for pIC50: TR-FRET activity assay, ATP at Km, 60 minutes, read-out: Mer IC50
T1 sequence (Q12866 21-999): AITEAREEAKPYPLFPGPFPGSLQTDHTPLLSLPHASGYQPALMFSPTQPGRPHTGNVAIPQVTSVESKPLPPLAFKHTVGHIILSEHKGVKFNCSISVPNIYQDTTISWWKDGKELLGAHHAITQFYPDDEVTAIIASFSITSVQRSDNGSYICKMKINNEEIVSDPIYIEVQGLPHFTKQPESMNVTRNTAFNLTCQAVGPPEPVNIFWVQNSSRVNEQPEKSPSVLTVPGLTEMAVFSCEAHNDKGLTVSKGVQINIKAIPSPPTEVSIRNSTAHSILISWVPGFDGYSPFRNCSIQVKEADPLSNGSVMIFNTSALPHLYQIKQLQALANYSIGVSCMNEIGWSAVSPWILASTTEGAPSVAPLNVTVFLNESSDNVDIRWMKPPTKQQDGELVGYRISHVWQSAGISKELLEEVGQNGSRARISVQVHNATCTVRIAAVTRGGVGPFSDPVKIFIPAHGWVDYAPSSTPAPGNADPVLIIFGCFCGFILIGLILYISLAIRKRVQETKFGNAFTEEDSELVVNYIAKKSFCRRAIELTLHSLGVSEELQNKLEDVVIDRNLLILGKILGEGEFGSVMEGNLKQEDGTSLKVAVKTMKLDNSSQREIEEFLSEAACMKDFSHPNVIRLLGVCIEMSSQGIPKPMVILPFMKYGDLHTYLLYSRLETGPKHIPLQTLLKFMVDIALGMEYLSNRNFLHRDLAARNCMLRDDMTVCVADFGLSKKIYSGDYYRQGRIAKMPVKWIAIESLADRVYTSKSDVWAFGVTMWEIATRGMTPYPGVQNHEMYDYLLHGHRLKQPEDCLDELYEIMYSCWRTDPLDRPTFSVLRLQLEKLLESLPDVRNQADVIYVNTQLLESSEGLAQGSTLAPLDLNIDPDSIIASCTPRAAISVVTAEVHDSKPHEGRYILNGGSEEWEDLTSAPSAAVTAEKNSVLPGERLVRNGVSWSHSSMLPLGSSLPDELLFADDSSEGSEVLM
Summary of the method: (§1)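 Compounds were tested against each kinase with ATP set at its own Km and a labelled tyrosine peptide substrate. Following one hour at room temperature in buffer containing 10 mM MgCl2 and 1 mM DTT, phosphorylated product was detected by Europium antibody TR-FRET after EDTA quench, and IC50 values were calculated.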

TYRO3 = target: T2, TYRO3 (Homo sapiens, UniProt Q06418); test: TR-FRET kinase activity assay, TYRO3; format: biochemical; conditions: ATP at Km, 60 minutes
T2 sequence (Q06418 41-890): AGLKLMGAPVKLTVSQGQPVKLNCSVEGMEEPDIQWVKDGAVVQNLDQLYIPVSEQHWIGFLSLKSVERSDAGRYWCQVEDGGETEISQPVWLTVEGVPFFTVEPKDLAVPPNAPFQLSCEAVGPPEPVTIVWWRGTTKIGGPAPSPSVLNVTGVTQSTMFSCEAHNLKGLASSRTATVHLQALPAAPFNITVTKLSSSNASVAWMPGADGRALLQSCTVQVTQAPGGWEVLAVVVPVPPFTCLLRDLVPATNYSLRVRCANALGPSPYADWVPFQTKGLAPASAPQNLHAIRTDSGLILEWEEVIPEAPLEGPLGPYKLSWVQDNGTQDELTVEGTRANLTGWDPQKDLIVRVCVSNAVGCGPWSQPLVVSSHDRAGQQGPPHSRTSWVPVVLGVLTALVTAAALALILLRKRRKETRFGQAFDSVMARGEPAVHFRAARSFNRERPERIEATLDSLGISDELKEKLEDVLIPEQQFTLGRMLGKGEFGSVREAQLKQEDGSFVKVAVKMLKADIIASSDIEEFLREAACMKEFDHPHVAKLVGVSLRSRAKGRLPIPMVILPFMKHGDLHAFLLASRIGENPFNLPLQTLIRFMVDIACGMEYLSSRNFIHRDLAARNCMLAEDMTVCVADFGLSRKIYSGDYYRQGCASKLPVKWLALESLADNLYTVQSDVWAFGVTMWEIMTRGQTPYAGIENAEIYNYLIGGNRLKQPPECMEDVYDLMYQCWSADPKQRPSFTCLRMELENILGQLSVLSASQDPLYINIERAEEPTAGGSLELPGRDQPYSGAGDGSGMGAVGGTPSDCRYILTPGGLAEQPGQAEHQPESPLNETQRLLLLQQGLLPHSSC
Summary of the method: as §1

Row | Structure (SMILES) | pIC50 (MERTK) | FLT3/Mer ratio (FLT3 IC50/Mer IC50) (MERTK; ratio calculated as FLT3 IC50/Mer IC50) | pIC50 (TYRO3) | FLT3/Mer ratio (FLT3 IC50/Mer IC50) (MERTK; ratio of Mer to FLT3: FLT3 IC50/Mer IC50)
1 | COC[C@H](C)Nc1ncc2c(-c3cnn(C4COC4)c3)cc([C@H]3CC[C@](O)(C(C)C)CC3)n2n1 [Compound 617] | ≥ 7.00 | +++ (“+++” represents a ratio of >100) | ≥ 7.00 | –
2 | COC[C@H](C)Nc1ncc2c(-c3ccc([C@H](C)N4CCOCC4)cc3)cc([C@H]3CC[C@H](O)CC3)n2n1 [Compound 157] | ≥ 7.00 | – | ≥ 7.00 | ++ (“++” represents a ratio of between 10 and 100)
